# Measurements reported in patent US9056874B2, “Complement pathway modulators and uses thereof” (NOVARTIS AG, priority 2012, dated 2015).
# Molecular target: factor B (Homo sapiens, UniProt P00751)
# Assay: factor B inhibition assay of Biological Example 1
# Format: biochemical
# Parameters: CVF-Bb complex prepared from purified cobra venom factor (1 μM), recombinant human complement factor B; made in house; host or cells: drosophila cells (factor B); E. coli (factor D used to form the complex)
# Conditions: IC50 (nM), assay of Biological Example 1 (Table 1)
# factor B, sequence (P00751 260-764 limits assumed): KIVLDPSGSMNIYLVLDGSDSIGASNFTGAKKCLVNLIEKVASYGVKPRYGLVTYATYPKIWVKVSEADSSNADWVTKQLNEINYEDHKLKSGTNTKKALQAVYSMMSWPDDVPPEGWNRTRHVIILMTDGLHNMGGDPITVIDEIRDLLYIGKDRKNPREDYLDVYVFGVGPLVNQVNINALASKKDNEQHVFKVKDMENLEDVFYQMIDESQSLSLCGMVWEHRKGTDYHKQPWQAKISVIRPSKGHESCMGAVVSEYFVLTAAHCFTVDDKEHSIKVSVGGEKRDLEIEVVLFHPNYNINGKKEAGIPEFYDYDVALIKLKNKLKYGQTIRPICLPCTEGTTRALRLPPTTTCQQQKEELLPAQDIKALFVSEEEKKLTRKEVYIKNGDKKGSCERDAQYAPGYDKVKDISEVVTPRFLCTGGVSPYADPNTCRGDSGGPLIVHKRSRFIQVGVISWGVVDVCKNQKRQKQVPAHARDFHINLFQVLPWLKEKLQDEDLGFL
# factor B, sequence (Q91132 23-649 partner limits assumed): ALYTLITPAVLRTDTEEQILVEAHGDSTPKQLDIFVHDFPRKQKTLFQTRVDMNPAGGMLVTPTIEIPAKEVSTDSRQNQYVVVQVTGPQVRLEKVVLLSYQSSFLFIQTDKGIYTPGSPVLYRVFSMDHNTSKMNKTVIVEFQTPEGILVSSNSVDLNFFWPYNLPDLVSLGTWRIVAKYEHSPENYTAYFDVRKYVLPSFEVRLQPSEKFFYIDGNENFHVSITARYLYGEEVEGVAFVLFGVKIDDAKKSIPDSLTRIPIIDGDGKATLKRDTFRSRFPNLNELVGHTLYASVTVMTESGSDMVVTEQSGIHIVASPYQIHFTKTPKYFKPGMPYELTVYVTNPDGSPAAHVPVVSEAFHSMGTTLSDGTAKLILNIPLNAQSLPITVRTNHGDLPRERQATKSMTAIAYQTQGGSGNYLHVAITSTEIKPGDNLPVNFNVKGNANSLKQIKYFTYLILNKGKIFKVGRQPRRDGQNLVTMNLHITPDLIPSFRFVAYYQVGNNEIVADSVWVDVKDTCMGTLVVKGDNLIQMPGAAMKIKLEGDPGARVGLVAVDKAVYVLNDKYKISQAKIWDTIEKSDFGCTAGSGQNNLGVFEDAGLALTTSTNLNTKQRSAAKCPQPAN
# factor B, sequence (Q91132 733-984 partner limits assumed): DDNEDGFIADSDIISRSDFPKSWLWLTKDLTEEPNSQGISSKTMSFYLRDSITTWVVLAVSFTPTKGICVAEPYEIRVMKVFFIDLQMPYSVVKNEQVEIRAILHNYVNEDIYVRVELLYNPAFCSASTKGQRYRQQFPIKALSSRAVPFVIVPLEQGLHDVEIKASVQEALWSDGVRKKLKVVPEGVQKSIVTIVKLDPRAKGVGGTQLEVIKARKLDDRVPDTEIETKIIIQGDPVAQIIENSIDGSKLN
# factor B, sequence (Q91132 1264-1642 partner limits assumed): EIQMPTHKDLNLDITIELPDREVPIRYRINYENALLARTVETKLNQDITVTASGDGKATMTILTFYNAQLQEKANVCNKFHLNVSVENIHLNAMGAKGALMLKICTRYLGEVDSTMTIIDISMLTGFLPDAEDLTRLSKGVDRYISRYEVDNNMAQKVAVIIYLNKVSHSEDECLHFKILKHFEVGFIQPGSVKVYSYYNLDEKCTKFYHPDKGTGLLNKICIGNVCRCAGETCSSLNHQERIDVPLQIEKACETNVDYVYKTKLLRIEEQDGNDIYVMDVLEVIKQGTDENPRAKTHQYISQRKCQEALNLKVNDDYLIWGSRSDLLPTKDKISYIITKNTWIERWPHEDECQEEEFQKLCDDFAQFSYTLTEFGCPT
row,Structure (SMILES),IC50 [nM]
1,"CC(=O)NC(c1nc2cc(C#N)ccc2[nH]1)c1c(C)cc(C)c2[nH]ccc12 (racemic) [Example 100, (±)-N-((5-cyano-1H-benzo[d]imidazol-2-yl)(5,7-dimethyl-1H-indol-4-yl)methyl)acetamide]",1120
2,"Cc1cc(C)c2[nH]cc(-c3cccnc3)c2c1C(O)c1nc2cc(C#N)ccc2[nH]1 (single isomer, unassigned) [120 b) (tr = 2.25 min), (+)- or (−)-2-((5,7-dimethyl-3-(pyridin-3-yl)-1H-indol-4-yl)(hydroxy)methyl)-1H-benzo[d]imidazole-5-carbonitrile]",120
3,"COc1cc(C)c2[nH]ccc2c1C(=O)c1nc2cc(C#N)ccc2[nH]1 [Example 25-B, 2-(5-Methoxy-7-methyl-1H-indole-4-carbonyl)-1H-benzo[d]imidazole-5-carbonitrile]",810
4,"COCCOC(c1nc2cc(C#N)ccc2[nH]1)c1c(C)cc(C)c2[nH]ccc12 (racemic) [Example 74, (±)-2-((5,7-Dimethyl-1H-indol-4-yl)(2-methoxyethoxy)methyl)benzo[d]imidazole-5-carbonitrile]",1870
5,"COc1cc(C)c2[nH]ccc2c1C(OC)(c1nc2cc(C#N)ccc2[nH]1)C(F)(F)F (single isomer, unassigned; (+)) [34-B b) (+), (+)-2-(2,2,2-trifluoro-1-methoxy-1-(5-methoxy-7-methyl-1H-indol-4-yl)ethyl)-1H-benzo[d]imidazole-5-carbonitrile]",50
6,CCC(O)(c1nc2cc(C#N)ccc2[nH]1)c1c(C)cc(C)c2[nH]ccc12 (centres unmarked) [Example 79-G],190
7,"COc1cc(C)c2[nH]ccc2c1C(O)c1nc2cc(C#N)ccc2[nH]1 (single isomer, unassigned; (-)) [24-B b) (−), (−)-2-(hydroxy(5-methoxy-7-methyl-1H-indol-4-yl)methyl)-1H-benzo[d]imidazole-5-carbonitrile]",90
8,"CCc1cc(C)c2[nH]ccc2c1C(C)(OC)c1nc2cc(C#N)ccc2[nH]1 (single isomer, unassigned; (+)) [84-C b) (+), (+)-2-(1-(5-ethyl-7-methyl-1H-indol-4-yl)-1-methoxyethyl)-1H-benzo[d]imidazole-5-carbonitrile]",150
9,"Cc1cc(CO)c(C(O)c2nc3cc(C#N)ccc3[nH]2)c2cc[nH]c12 (single isomer, unassigned; (-)) [65-D b) (−), (−)-2-(hydroxy(5-(hydroxymethyl)-7-methyl-1H-indol-4-yl)methyl)-1H-benzo[d]imidazole-5-carbonitrile]",270
10,"COc1cc(C)c2[nH]ccc2c1C(C)(N)c1nc2cc(C#N)ccc2o1 (single isomer, unassigned; (-)) [131-B b) (−), (−)-2-(1-amino-1-(5-methoxy-7-methyl-1H-indol-4-yl)ethyl)benzo[d]oxazole-5-carbonitrile]",52
11,"Cc1cc(C)c2[nH]ccc2c1C(OCC(=O)O)c1nc2cc(C#N)ccc2[nH]1 (racemic) [Example 69, (±)-2-((5-cyano-1H-benzo[d]imidazol-2-yl)(5,7-dimethyl-1H-indol-4-yl)methoxy)acetic acid]",3630
12,"CCc1cc(C)c2[nH]ccc2c1C(O)c1nc2cc(C#N)ccc2[nH]1 (single isomer, unassigned; (+)) [67-A b) (+), (+)-2-((5-ethyl-7-methyl-1H-indol-4-yl)(hydroxy)methyl)-1H-benzo[d]imidazole-5-carbonitrile]",1160
13,COc1cc2[nH]c(Cc3c(C)cc(C)c4[nH]ccc34)nc2cc1C#N [Example 63-J],83200
14,"CNC(c1nc2cc(C#N)ccc2[nH]1)(c1c(C2CC2)cc(C)c2[nH]ccc12)C(F)(F)F (single isomer, unassigned; (-)) [107-E b) (−), (−)-2-(1-(5-cyclopropyl-7-methyl-1H-indol-4-yl)-2,2,2-trifluoro-1-(methylamino)ethyl)-1H-benzo[d]imidazole-5-carbonitrile]",3
15,Cc1cc(C)c2[nH]ccc2c1Cc1nc2cc(C#N)cc(C)c2[nH]1 [Example 63-F],> 100000
16,"Cc1cc(S(C)(=O)=O)c(C(N)(c2nc3cc(C#N)ccc3[nH]2)C(F)(F)F)c2cc[nH]c12 (single isomer, unassigned; (-)) [17-B b) (−), (−)-2-(1-amino-2,2,2-trifluoro-1-(7-methyl-5-(methylsulfonyl)-1H-indol-4-yl)ethyl)-1H-benzo[d]imidazole-5-carbonitrile]",1330
17,"COc1cc(C)c2[nH]ccc2c1C(O)c1nc2cc(C#N)ccc2o1 (single isomer, unassigned; (+)) [125-B b) (+), (+)-2-(hydroxy(5-methoxy-7-methyl-1H-indol-4-yl)methyl)benzo[d]oxazole-5-carbonitrile]",180
18,"Cc1cc(C(C)C)c(C(O)(c2nc3cc(C#N)ccc3[nH]2)C(F)(F)F)c2cc[nH]c12 (single isomer, unassigned; (+)) [80-F b) (+), (+)-2-(2,2,2-trifluoro-1-hydroxy-1-(5-isopropyl-7-methyl-1H-indol-4-yl)ethyl)-1H-benzo[d]imidazole-5-carbonitrile]",690
19,"CCc1cc(C)c2[nH]cc(C(F)(F)F)c2c1C(C)(O)c1nc2cc(C#N)ccc2[nH]1 (single isomer, unassigned; (+)) [Example 88, (+)-2-(1-(5-Ethyl-7-methyl-3-(trifluoromethyl)-1H-indol-4-yl)-1-hydroxyethyl)-1H-benzo[d]imidazole-5-carbonitrile]",57900
20,"COc1cc(C)c2[nH]ccc2c1C(O)c1cc2cc(C#N)ccc2o1 (racemic) [Example 134, (±)-2-(hydroxy(5-methoxy-7-methyl-1H-indol-4-yl)methyl)benzofuran-5-carbonitrile]",90
21,"CCOCc1cc(C)c2[nH]ccc2c1C(O)c1nc2cc(C#N)ccc2[nH]1 (single isomer, unassigned; (-)) [66-D b) (−), (−)-2-((5-(ethoxymethyl)-7-methyl-1H-indol-4-yl)(hydroxy)methyl)-1H-benzo[d]imidazole-5-carbonitrile]",5110
22,"CCC(O)(c1nc2cc(C#N)ccc2[nH]1)c1c(OC(C)C)cc(C)c2[nH]ccc12 (single isomer, unassigned; (+)) [26-F b) (+), (+)-2-(1-hydroxy-1-(5-isopropoxy-7-methyl-1H-indol-4-yl)propyl)-1H-benzo[d]imidazole-5-carbonitrile]",230
23,"CCc1cc(C)c2[nH]ccc2c1C(OC)c1nc2cc(C#N)ccc2[nH]1 (single isomer, unassigned; (-)) [70-D b) (−), (−)-2-((5-ethyl-7-methyl-1H-indol-4-yl)(methoxy)methyl)-1H-benzo[d]imidazole-5-carbonitrile]",480
24,"COC(c1nc2cc(C#N)ccc2[nH]1)c1c(C)cc(C)c2[nH]ccc12 (racemic) [Example 68-B, (±)-2-((5,7-Dimethyl-1H-indol-4-yl)(methoxy)methyl)-1H-benzo[d]imidazole-5-carbonitrile]",200
25,"COC(c1nc2cc(C#N)ccc2[nH]1)c1c(CC(C)C)cc(C)c2[nH]ccc12 (single isomer, unassigned; (+)) [71 b) (+), (+)-2-((5-isobutyl-7-methyl-1H-indol-4-yl)(methoxy)methyl)-1H-benzo[d]imidazole-5-carbonitrile]",4550
26,COc1cc(C)c2[nH]ccc2c1Cc1nc2cc(C#N)ccc2o1 [Example 20-G],120
